Where “and” joins values, the source holds several entries; their conditions need not be identical. Equal values may be shown once. Read-outs that look alike come from different tables or passages of the source.
Tests used:
[1] = Efficacy PK blood samples, chronic model; assay type: in vivo, mouse; conditions: 50 mg/kg po b.i.d.
Protocol: In a model of the chronic phase of HAT, compound 1 was administered to five mice infected with T. b. brucei TREU667 at 50 mg/kg/po b.i.d.×10 days, beginning 21 days post-infection. […] Efficacy PK blood samples were collected from three of the five mice prior to dose 15, and at 1 h and 6 h post-dose. Average plasma levels of the test compound were 15.8±8.7 μM (pre-dose), […] (1 h), and 26.7±7.1 μM (6 h). Compound 1 attained 5/5 cures as determined by the absence of detectable parasitemia in any of the treated mice through 180 days post-infection (FIG. 2). No mice receiving vehicle alone had spontaneous cures.

[2] = Rat pharmacokinetics, intravenous administration; assay type: in vivo; set-up: AUC(0-inf): unit not given here; conditions: 5 mg/kg; for AUC(0-inf) / Cmax / half-life / clearance / Vd: rat, iv; for Cmax / half-life / clearance / Vd: plasma
Protocol: The pharmacokinetics of compound 1 was tested in rats after intravenous and oral administration. Two rats were administered 5 mg/kg compound 1 intravenously in a vehicle consisting of 7% Tween 80, 3% EtOH, 5% DMSO in saline. Two rats were administered 20 mg/kg compound 1 orally in a vehicle consisting of 5% DMSO, 0.5% Tween 80, 1% methylcellulose in water. The results are shown in Table 4 and FIGS. 3A-3B and 4A-4B.

[3] = Metabolic stability in human liver microsomes; assay type: in vitro ADME
Protocol: (§1) Metabolic stability was evaluated using liver microsomes derived from mouse and human sources. Microsomal incubations were carried out according to a protocol described previously (Wang et al., Antimicrob. Agents Chemother. 54:2507 (2010)) with modifications. Briefly, substrate stock solutions were prepared in DMSO and DMSO content was kept at 0.5% (v/v) in final incubations. Incubation mixtures ([…]), liver microsomes (0.5 mg/mL) from mouse (pool of 1000, CD-1 male mouse) or human (pool of 50, mixed gender) (XenoTech LLC, Lenexa, Kans.) in a phosphate buffer (100 mM, pH 7.4) containing 3.3 mM MgCl2. After a 5-minute pre-equilibration period at 37° C., reactions (in triplicate) were initiated by adding the NADPH cofactor (1 mM). For NADPH-independent reactions, the cofactor was replaced with water. Aliquots (10 μl) of the reaction mixtures were removed at 0, 15, 30, and 60 minutes and individually mixed with 200 μL of ice-cold acetonitrile containing internal standard. The mixtures were vortex-mixed, and precipitated protein was removed by centrifugation at 2,250×g for 15 min. The supernatant fractions were dried using a 96-well microplate evaporator (Apricot Designs Inc., Covina, Calif.) under N2 at 50° C. and reconstituted with 100 μL 50% methanol containing 0.1% trifluoroacetic acid before UPLC-MS/MS analysis. In vitro half-life (t1/2) was obtained by analyzing the substrate concentration vs. incubation time curve using the one-phase exponential decay model (GraphPad Prism® 5.0, San Diego, Calif.).

Leishmania amazonensis = assay: Antimicrobial activity against Leishmania amazonensis; assay type: cell-based; conditions: Table 1, Leishmania amazonensis
human hepatocytes HepG2 = assay: Cytotoxicity against HepG2 cells
[4] = Metabolic stability in mouse liver microsomes; assay type: in vitro ADME
Protocol: as §1

Plasmodium falciparum = assay: Antimicrobial activity against Plasmodium falciparum; assay type: cell-based; conditions: Table 1, Plasmodium falciparum
T. b. brucei TREU667 = assay: Mouse efficacy model of chronic T. brucei infection; assay type: in vivo; conditions: 50 mg/kg po b.i.d. x 10 days from day 21, no detectable parasitemia through 180 days post-infection, 50 mg/kg
Protocol: For chronic efficacy, experiments were done in compliance with the University of Washington IACUC approved protocol. According to published procedures, groups of 5 mice were infected with 1×10^4 T. b. brucei (strain TREU667) at day 0 to establish a chronic infection. Treatment began on day 21 post-infection, and mice received 50 mg/kg test compound orally b.i.d. for 10 d (total of 20 doses) in a 200 μL volume of a vehicle composed of Phosal 53 MCT (60%), PEG400 (30%) and EtOH (10%). A control group received vehicle with no compound and another control group received a single intraperitoneal dose of diminazene aceturate at 10 mg/kg in water on day 21. […] Post dosing, parasitemia was monitored via microscopic examination of tail blood slides until 180 days post-infection. Mice were removed from the experiment once parasites were detected in the blood.
In a model of the chronic phase of HAT, compound 1 was administered to five mice infected with T. b. brucei TREU667 at 50 mg/kg/po b.i.d.×10 days, beginning 21 days post-infection. […] Efficacy PK blood samples were collected from three of the five mice prior to dose 15, and at 1 h and 6 h post-dose. […] Compound 1 attained 5/5 cures as determined by the absence of detectable parasitemia in any of the treated mice through 180 days post-infection (FIG. 2). […]

[5] = Efficacy PK blood samples, acute model; assay type: in vivo, mouse; conditions: 50 mg/kg po b.i.d.
Protocol: In a model of the acute phase of HAT, five mice infected with T. b. rhodesiense STIB900 were given the test compound at 50 mg/kg po b.i.d.×4 days, beginning 2 days post-infection. Efficacy PK blood samples were collected from three of the five mice prior to dose 7, and at 1 h and 6 h post-dose. Average plasma levels of the test compound were 9.1±7.6 μM (pre-dose), 18.6±7.2 μM (1 h), and 15.0±4.2 μM (6 h). Compound 1 attained 5/5 cures as determined by the absence of detectable parasitemia in any of the treated mice 60 days post-infection (FIG. 1).

[6] = Table 12, after 60 min (where t1/2 > 60 min)

Structure (SMILES): O=C(Nc1ccc2sc(-c3ccc(F)c(F)c3)nc2c1)N1CC[C@H](F)C1 [Compound 1, (S)-2-(3,4-Difluorophenyl)-5-(3-fluoro-N-pyrrolidylamido)benzothiazole]
- Average plasma levels ([1]; 1 h post dose 15): 23.1 ± 603 µM
- Average plasma levels ([1]; 6 h post dose 15): 26.7 ± 7.1 µM
- Average plasma levels ([1]; prior to dose 15 (pre-dose)): 15.8 ± 8.7 µM
- Tmax ([2]; Mean ± SEM (n = 2)): 5 min
- Tmax ([2]; Rat 2): 5 min
- Tmax ([2]; in vivo, Rat 1, read-out: Tmax (converted)): 5 min
- AUC(0-inf) ([2]; in vivo, Mean ± SEM (n = 2)): 1440
- AUC(0-inf) ([2]; in vivo, Rat 1): 1380
- AUC(0-inf) ([2]; in vivo, Rat 2): 1500
- Cmax ([2]; Mean ± SEM (n = 2)): 11.7 µM
- half-life ([2]; Mean ± SEM (n = 2), read-out: Apparent T1/2 (min) for steady state): 96.7 min
- half-life ([2]; Mean ± SEM (n = 2), read-out: Apparent T1/2 (min) for terminal phase): 96.7 min
- clearance ([2]; Mean ± SEM (n = 2), read-out: Plasma CL): 9.35 mL/min/kg
- Vd ([2]; Mean ± SEM (n = 2), read-out: Plasma Vz): 0.76 L/kg
- Vd ([2]; Mean ± SEM, read-out: Plasma Vss): 1.31 L/kg
- Cmax ([2]; Rat 1): 12.1 µM
- half-life ([2]; Rat 1, read-out: Apparent T1/2 (min) for steady state): 88.5 min
- half-life ([2]; Rat 1, read-out: Apparent T1/2 (min) for terminal phase): 88.5 min
- clearance ([2]; Rat 1, read-out: Plasma CL): 10.3 mL/min/kg
- Vd ([2]; Rat 1, read-out: Plasma Vss): 1.32 L/kg
- Vd ([2]; Rat 1, read-out: Plasma Vz): 0.882 L/kg
- Cmax ([2]; Rat 2): 11.3 µM
- half-life ([2]; Rat 2, read-out: Apparent T1/2 (min) for steady state): 105 min
- half-life ([2]; Rat 2, read-out: Apparent T1/2 (min) for terminal phase): 105 min
- clearance ([2]; Rat 2, read-out: Plasma CL): 8.38 mL/min/kg
- Vd ([2]; Rat 2, read-out: Plasma Vss): 1.3 L/kg
- Vd ([2]; Rat 2, read-out: Plasma Vz): 0.639 L/kg
- Human microsomes, percentage of compound remaining [3, 6]: 53%
- half-life at 1.5 μM ([3]; both sexes, human, liver microsomes, pH 7.4, Table 12, 37° C., NADPH (1 mM), microsomes 0.5 mg/mL, test compounds 1.5 μM, read-out: Human microsomes t1/2): > 1 h
- half-life at 3 μM ([3]; both sexes, liver microsomes, pH 7.4, human microsomes, read-out: microsomal half-life): 1 h
- EC50 (Leishmania amazonensis): > 10 µM
- toxicity to the HepG2 cells (in words) (human hepatocytes HepG2): no detectable toxicity
- EC50 (human hepatocytes HepG2; Homo sapiens, HepG2, read-out: HepG2 EC50): > 50 µM
- EC90 (human hepatocytes HepG2; read-out: HepG2 EC90, concentration required to inhibit growth by 90%, human hepatocytes): > 50 µM
- Microsome t1/2 (min) Mouse ([4]; Table 5): >60 min
- Mouse microsomes, percentage of compound remaining [4, 6]: 73%
- half-life at 3 μM ([4]; male, CD-1, liver microsomes, pH 7.4, mouse microsomes, read-out: microsomal half-life): > 1 h
- half-life at 1.5 μM ([4]; male, CD-1, mouse, liver microsomes, pH 7.4, Table 12, 37° C., NADPH (1 mM), microsomes 0.5 mg/mL, test compounds 1.5 μM, read-out: Mouse microsomes t1/2): > 1 h
- EC50 (Plasmodium falciparum): 16.7 µM
- mice cured (cures) (T. b. brucei TREU667): 5 of 5 and 5/5
- Average plasma levels ([5]; 1 h post dose 7): 18.6 ± 7.2 µM
- Average plasma levels ([5]; 6 h post dose 7): 15.0 ± 4.2 µM
- Average plasma levels ([5]; prior to dose 7 (pre-dose)): 9.1 ± 7.6 µM
